Article PMC12016938, “A small molecule PKCε inhibitor reduces hyperalgesia induced by paclitaxel or opioid withdrawal” (JCI Insight, 2025)
Several values for one entry are separate records, joined by “and”; a condition that tells them apart may be missing. Identical values can stand only once. Counter-ions that a name gives are not always drawn.

Experiments:
[1] = biological target: T1, ROCK2 (Homo sapiens, UniProt O75116); assay: scanMax kinome panel, ROCK2; format: binding; conditions: 200 nM CP612
T1 construct: purchased Eurofins-DiscoverX
Description: CP612 was screened for kinome specificity at 200 nM against 468 kinases using the scanMax assay panel from Eurofins-DiscoverX. CP612 inhibited 10 other WT kinases besides PKCε, all to < 10% of control: CLK1 (CDC Like Kinase 1), CLK4, PKN1 (Protein kinase N1), PKN2, PKCδ, PKCη, PKCθ, PRKG2 (Protein Kinase CGMP-Dependent 2), ROCK1, and ROCK2.

[2] = system: conditioned place aversion; assay: Conditioned place aversion precipitated by naloxone; format: in vivo, DBA/2J mice; conditions: for Preference score: individual mice, time in environment paired with naloxone (5 mg/kg, i.p.) minus time in it at baseline, negative = aversion
Description: In addition to hyperalgesia, withdrawal from repeated administration of morphine produces somatic signs of withdrawal and conditioned place aversion. We tested the effects of CP612 on these responses. […] Two hours after this last injection of saline or morphine, mice were administered naloxone (5 mg/kg, i.p.) to precipitate somatic signs of withdrawal and conditioned place aversion. Withdrawal from repeated administration of morphine evoked somatic signs of withdrawal (Figure 11, A–C, and Supplemental Figure 2); only the highest dose of CP612 (40 mg/kg) reduced them (Figure 11, A–C) [H PKC inhibition (3, n = 62) = 33.34, P < 0.001]. Withdrawal from repeated administration of morphine also evoked conditioned place aversion (Figure 11, A and C) [F PKC inhibition (5,78) = 7.16, P < 0.001; mice receiving repeated administration of saline with vehicle versus mice receiving repeated administration of morphine with vehicle, P < 0.001], and this was not modified by CP612 at any dose tested (all P > 0.079).
The place conditioning apparatus was an acrylic box enclosed in light- and sound-attenuating, ventilated chambers (MED Associates). The box had 2 compartments separated by a removable sliding door. […] The dimensions of each compartment were 13.5 × 27 × 17 cm. Infrared light beams and photodetectors located along the walls of the box measured general activity and location of the mouse in each compartment, which were recorded using Activity Monitor version 7.0.5.10 software (Med Associates). On day 0 (pretest), drug-naive mice were acclimated for 15 minutes to the place conditioning apparatus without the sliding door, so they had free access to both compartments of the apparatus. This established a baseline side preference, based on the amount of time spent in each compartment. […] On day 6 (conditioning day), mice were pretreated with vehicle (10 mL/kg, i.p.) or CP612 (5, 10, 20, or 40 mg/kg, i.p.), followed by a single injection of morphine (100 mg/kg, i.p.) 4 hours later. Two hours after this last injection of morphine, mice were administered naloxone (5 mg/kg, i.p.), to precipitate withdrawal, and were immediately confined to 1 side of the conditioning apparatus for 20 minutes. During this conditioning period, mice were filmed (Raspberry Pi Camera) to assess somatic signs of withdrawal ([39]). Given the limited number of cameras and the poor quality of some videos, we were only able to film a subset of mice. The following behaviors were given a score of 1 per occurrence and episode: body shakes (paw tremors and wet dog shakes), teeth chatter, rearing, hopping, wall climbing, and backpedaling. These scores were summed to obtain a global withdrawal score and were obtained from an independent observer who was blind to the experimental conditions. A subset of videos was scored by 2 observers, to ensure internal validity (Cronbach’s α = 0.980, Correlation Observer r = 0.97, slope 1.15, P < 0.005). On day 7 (test day), mice were placed in the conditioning apparatus with free access to both compartments, for 15 minutes. We recorded the time spent in each compartment.

[3] = system: morphine self-administration
[4] = biological target: PKCδ (Homo sapiens, UniProt Q05655); assay: Lance-FRET kinase assay, PKCδ; format: biochemical; parameters: purchased SignalChem Biotech
Description: Kinase assays. CP612 was assayed against His-AVI–tagged human PKCε (1 nM) produced in Sf9 cells, and ROCK1 (Carna Biosciences; 5 nM) using the Lance-FRET kinase assay system (PerkinElmer Revvity). Other human recombinant PKCs (SignalChem Biotech) were assayed in triplicate at the following concentrations: PKCβII 1.6 nM, PKCγ 500 pM, PKCδ 5 nM, PKCθ 500 pM, and PKCζ 500 pM. PKCs were incubated in a 15 μL reaction volume with kinase buffer (20 mM Tris-HCL [pH 7.4], 10 mM MgCl2, 0.25 mM EGTA, 0.1 mg/mL BSA, and 0.15% Triton X-100), 50 nM ULight-labeled CREBtide […] (PerkinElmer, TRF0107, Revvity), and test compound. […] After incubation at 27°C for another 60 minutes, phosphorylation was detected using a FlexStation 3 Microplate Reader (Molecular Devices) in LANCE TR-FRET mode (excitation = 340 nm, emission = 665 nm) and expressed as relative fluorescence units (RFU). The percentage of inhibition was calculated as: (signal without test compound − signal with test compound)/(signal without test compound − signal without ATP) × 100. […]
Kinase assays used 11-point concentration-response curves and results were analyzed by nonlinear regression using Prism 9 (GraphPad Software) to determine IC50 values. […] Scores for pain threshold, conditioned place preference, and self-administration were analyzed by ANOVA using the following factors. […]

[5] = system: hyperalgesia induced by morphine withdrawal; assay: Time course of hyperalgesia induced by morphine withdrawal, von Frey SUDO; conditions: for von Frey filament number that led to paw withdrawal: single male mouse; for Hyperalgesia after withdrawal from repeated morphine: male C57BL/6J mice, 20–100 mg/kg i.p. twice daily 5 days
Description: Mice received repeated injections of saline (10 mL/kg, i.p.) or morphine (20–100 mg/kg, i.p.) twice daily for 5 days, to induce dependence.
Mechanical nociceptive thresholds in mice were quantified using the simplified up-down (SUDO) method with von Frey filaments ([36]). […] The force to bend the filaments ranged from 0.008 g (filament 1) to 6 g (filament 12). Mice were acclimated to the test room and apparatus for 1 hour prior to testing. We started testing mice with filament 5 (bending force 0.16 g) and stepped up or down according to the response of the mouse. The filament that elicited a definite paw withdrawal or notable flinch was recorded. All measures were averaged between both hind paws and are expressed as filament number, which allows for parametric analysis ([36]). The higher the filament number, the higher the pain threshold (and the lower the sensitivity to pain). Prior to starting experiments, baseline threshold levels were obtained 3–4 times at 2- to 5-day intervals on each of the hind paws of the mouse.
Morphine dependence in mice was induced by repeated i.p. injections (10 mL/kg) of morphine administered at increasing doses, over 5 days (day 1: 20 mg/kg, day 2: 40 mg/kg, day 3: 60 mg/kg, day 4: 80 mg/kg, day 5: 100 mg/kg). Injections of each dose were administered twice daily, 6 hours apart.

Chain of PKCδ (Q05655 whole entry): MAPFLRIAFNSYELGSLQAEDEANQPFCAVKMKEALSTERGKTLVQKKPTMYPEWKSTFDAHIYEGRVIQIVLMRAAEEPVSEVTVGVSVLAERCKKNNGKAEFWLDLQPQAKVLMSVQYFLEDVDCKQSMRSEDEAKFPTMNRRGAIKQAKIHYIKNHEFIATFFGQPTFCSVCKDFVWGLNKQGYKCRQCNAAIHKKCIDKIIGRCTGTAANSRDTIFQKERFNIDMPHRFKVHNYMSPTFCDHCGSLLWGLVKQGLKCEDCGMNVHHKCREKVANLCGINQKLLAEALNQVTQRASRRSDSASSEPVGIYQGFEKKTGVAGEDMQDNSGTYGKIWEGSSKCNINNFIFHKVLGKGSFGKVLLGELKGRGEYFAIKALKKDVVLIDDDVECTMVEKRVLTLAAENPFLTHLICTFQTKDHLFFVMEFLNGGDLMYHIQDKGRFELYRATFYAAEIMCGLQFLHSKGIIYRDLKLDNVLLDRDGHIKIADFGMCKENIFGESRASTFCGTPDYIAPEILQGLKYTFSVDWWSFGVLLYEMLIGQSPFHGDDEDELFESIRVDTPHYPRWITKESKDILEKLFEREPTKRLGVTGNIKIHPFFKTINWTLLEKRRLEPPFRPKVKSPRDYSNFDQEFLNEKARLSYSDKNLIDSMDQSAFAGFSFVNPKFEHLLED
T1 sequence (O75116 whole entry): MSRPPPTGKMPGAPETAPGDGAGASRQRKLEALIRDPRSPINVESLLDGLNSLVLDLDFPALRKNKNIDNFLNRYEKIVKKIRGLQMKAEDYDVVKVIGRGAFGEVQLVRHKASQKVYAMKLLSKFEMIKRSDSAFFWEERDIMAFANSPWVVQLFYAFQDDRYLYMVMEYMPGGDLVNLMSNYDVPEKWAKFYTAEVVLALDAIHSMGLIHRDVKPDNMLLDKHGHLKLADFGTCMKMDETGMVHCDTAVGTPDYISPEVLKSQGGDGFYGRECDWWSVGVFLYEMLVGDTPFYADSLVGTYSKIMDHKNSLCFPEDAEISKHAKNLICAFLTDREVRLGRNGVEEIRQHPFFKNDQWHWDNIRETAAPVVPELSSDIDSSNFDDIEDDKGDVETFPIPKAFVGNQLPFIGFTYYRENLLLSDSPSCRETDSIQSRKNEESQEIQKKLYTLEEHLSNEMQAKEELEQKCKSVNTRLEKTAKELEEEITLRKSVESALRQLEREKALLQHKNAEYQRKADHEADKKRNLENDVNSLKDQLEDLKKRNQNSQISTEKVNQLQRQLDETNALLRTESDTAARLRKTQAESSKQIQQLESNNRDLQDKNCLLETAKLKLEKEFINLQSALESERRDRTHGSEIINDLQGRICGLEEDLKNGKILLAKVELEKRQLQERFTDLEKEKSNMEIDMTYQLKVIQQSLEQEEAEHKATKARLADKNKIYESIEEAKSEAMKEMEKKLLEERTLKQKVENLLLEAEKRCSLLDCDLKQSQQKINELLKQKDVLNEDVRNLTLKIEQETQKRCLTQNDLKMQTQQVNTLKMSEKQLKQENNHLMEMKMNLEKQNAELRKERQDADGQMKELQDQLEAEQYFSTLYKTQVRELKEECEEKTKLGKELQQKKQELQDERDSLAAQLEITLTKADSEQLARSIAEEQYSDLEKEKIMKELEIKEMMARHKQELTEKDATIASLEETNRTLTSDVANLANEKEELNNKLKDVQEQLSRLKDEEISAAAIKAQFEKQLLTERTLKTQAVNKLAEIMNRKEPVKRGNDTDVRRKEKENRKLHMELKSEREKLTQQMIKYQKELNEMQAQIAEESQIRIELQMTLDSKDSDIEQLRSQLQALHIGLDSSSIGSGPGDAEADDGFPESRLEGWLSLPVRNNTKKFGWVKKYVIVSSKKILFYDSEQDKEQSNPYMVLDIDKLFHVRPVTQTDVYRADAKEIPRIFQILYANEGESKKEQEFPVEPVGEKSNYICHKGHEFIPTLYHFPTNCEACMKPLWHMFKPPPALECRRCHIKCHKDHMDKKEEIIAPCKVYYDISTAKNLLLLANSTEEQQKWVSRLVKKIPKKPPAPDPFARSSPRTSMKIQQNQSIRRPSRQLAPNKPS

SMILES | scanMax % of control, ROCK2 [1] | Preference score ([2]; Morphine + CP612 5 mg/kg) | Preference score ([2]; Morphine + CP612 10 mg/kg) | Preference score ([2]; Morphine + CP612 20 mg/kg) | Preference score ([2]; Morphine + CP612 40 mg/kg) | Effect on conditioned place aversion ([2]; male DBA/2J mice, CP612 5, 10, 20, 40 mg/kg i.p.) | Effect on morphine self-administration (breaking point and self-infusions) ([3]; CP612 30 mg/kg i.p. 18 hours prior, 30 mg/kg) | Inf (avg last 3 days) ([3]; rats, morphine SA 18 h after CP612, average of last 3 days, infusions) | inhibition at 0.03 µM ([4]; 30 nM CP612, read-out: Inhibition of novel PKCs (PKCδ)) | IC50 ([4]; Figure 1B PKC isozyme panel) | von Frey filament number that led to paw withdrawal ([5]; 1week after last morphine injection) | von Frey filament number that led to paw withdrawal ([5]; 6h after last morphine injection) | von Frey filament number that led to paw withdrawal ([5]; 24h after last morphine injection) | von Frey filament number that led to paw withdrawal ([5]; Baseline) | Hyperalgesia after withdrawal from repeated morphine ([5]; 6 hours after last injection) | Hyperalgesia after withdrawal from repeated morphine ([5]; 24 hours and 1 week after last injection)
N[C@H](CNC(=O)C1(c2ccc(Cl)cc2)CCCC1)c1ccc(C(=O)Nc2ccncc2)cc1 [CP612] | < 10 % of control | -0.0843 and -0.28 and -0.22 and -0.17 and -0.023 and -0.35 | -0.07 and -0.22 and -0.42 and -0.21 and -0.19 and -0.38 and -0.15 and -0.12 and 0.14 and -0.13 and -0.10 and 0.0341 and -0.23 | -0.0656 and -0.40 and -0.13 and -0.25 and -0.10 and -0.30 and -0.31 | -0.17 and -0.18 and -0.35 and -0.39 and 0.000111 and -0.22 and 0.013 and -0.28 and -0.25 and -0.09 and -0.27 | not modified | did not modify self-administration | 8 and 12 | > 50% | 18.8 nM |  |  |  |  |  | 
CN1CC[C@]23c4c5ccc(O)c4O[C@H]2[C@@H](O)C=C[C@H]3[C@H]1C5 [Morphine, Morphine sulfate, reference compound] |  |  |  |  |  |  |  |  |  |  | 5.5 filament number and 7.5 filament number and 6 filament number | 7.5 filament number and 9.5 filament number and 8 filament number and 7 filament number | 5.5 filament number and 6.5 filament number and 6 filament number and 7.5 filament number | 7.5 filament number and 8.5 filament number and 8 filament number and 9.5 filament number | not present | present
